Source: patent US6953786B2, “Compositions comprising plant-derived polyphenolic compounds and inhibitors of reactive oxygen species and methods of using thereof” (The Regents of the University of California, priority 2002, dated 2005)
Residues, ends and D or L forms follow the SMILES beside them. *: point of attachment. Cbz = O=C(OCc1ccccc1)*

Tests used:
NF-κB [1] = experiment: NF-κB DNA binding activity (EMSA); format: cell-based, rat; conditions: BSp73AS, 6 hours; polyphenols 100 μM, MG-132 20 μM
Procedure: In order to determine the role of activated NF-κB in the regulation of apoptosis caused by the polyphenolic compound, the following assay was conducted. BSp73AS cells were cultured for 6 hours and Mia PACA-2 cells were cultured in the absence of serum or growth factors for 24 hours in the absence (controls) or presence of rutin, quercetin, trans-resveratrol, or genistein, each at 100 μM and 20 μM proteosome inhibitor MG-132. Nuclear proteins were isolated and analyzed for NF-κB DNA binding activity with electrophoretic mobility shift assay (EMSA). Specifically, aliquots of nuclear extracts with equal amount of protein, about 2 to about 10 μg, were mixed in 20 μl reactions with a buffer comprising 10 mM HEPES (pH 7.6), 50 mM KCl, 0.1 mM EDTA, 1 mM DTT, 10% (vol/vol) glycerol and 3 μg poly[d (I-C)]. After aliquots were equilibrated on ice for 5 minutes, binding reactions were stared by addition of 20-60,000 counts/min (20 fM) of ^32P-labeled DNA probes and allowed to proceed for 25-30 minutes at room temperature or up to 1 hour on ice. The oligonucleotide probe containing the κB binding motif (underlined) was annealed to the complementary oligonucleotide with a 5′-G overhang and end-labeled using Klenow DNA polymerase I. The samples were electrophoresed at room temperature in 0.5×TBE buffer (1×TBE 89 mM Tris base, 89 mM boric acid and 2 mM EDTA) on nondenaturing 4.5% polyacrylamide gel at 200 V. Gels were dried and directly analyzed in the PhosphorImager (Molecular Dynamics, Sunnyvale, Calif.). The experiment was repeated twice.

[2] = system: BSp73AS and Mia PACA-2 cells; experiment: Caspase-3 activity and annexin staining with MG-132 (FIG. 14C); format: cell-based; conditions: MG-132 20 μM
NF-κB [3] = experiment: NF-κB DNA binding activity (EMSA / gel shift); format: cell-based, human; conditions: Mia PACA-2, 24 hours, no serum; polyphenols 100 μM, MG-132 20 μM
Procedure: In order to determine the role of activated NF-κB in the regulation of apoptosis caused by the polyphenolic compound, the following assay was conducted. BSp73AS cells were cultured for 6 hours and Mia PACA-2 cells were cultured in the absence of serum or growth factors for 24 hours in the absence (controls) or presence of rutin, quercetin, trans-resveratrol, or genistein, each at 100 μM and 20 μM proteosome inhibitor MG-132. Nuclear proteins were isolated and analyzed for NF-κB DNA binding activity with electrophoretic mobility shift assay (EMSA).
Specifically, aliquots of nuclear extracts with equal amount of protein, about 2 to about 10 μg, were mixed in 20 μl reactions with a buffer comprising 10 mM HEPES (pH 7.6), 50 mM KCl, 0.1 mM EDTA, 1 mM DTT, 10% (vol/vol) glycerol and 3 μg poly[d (I-C)]. After aliquots were equilibrated on ice for 5 minutes, binding reactions were stared by addition of 20-60,000 counts/min (20 fM) of ^32P-labeled DNA probes and allowed to proceed for 25-30 minutes at room temperature or up to 1 hour on ice. The oligonucleotide probe
containing the κB binding motif (underlined) was annealed to the complementary oligonucleotide with a 5′-G overhang and end-labeled using Klenow DNA polymerase I. The samples were electrophoresed at room temperature in 0.5×TBE buffer (1×TBE 89 mM Tris base, 89 mM boric acid and 2 mM EDTA) on nondenaturing 4.5% polyacrylamide gel at 200 V. Gels were dried and directly analyzed in the PhosphorImager (Molecular Dynamics, Sunnyvale, Calif.). The experiment was repeated twice.
To study the effects of combinations of DPI and polyphenolic compounds on serum-induced activation of NF-κB and protection from apoptosis, the following assay was conducted. Mia PACA-2 cells were cultured for 72 hours in the presence of serum with or without 100 μM trans-resveratrol, 15 μM DPI, a combination of trans-resveratrol, 100 μM genistein, or a combination of genistein and DPI. NF-κB binding activity was measured in nuclear extracts by gel shift assay as described above.
To determine the effects of LY29400 and DPI on NF-κB activation, Mia PACA-2 cells were cultured for 72 hours in the presence of serum and 15 μM DPI with or without 50 μM LY294002. NF-κB DNA binding activity was measured in nuclear extracts by gel shift assay as described above.

Compound: CC(C)C[C@@H](C=O)NC(=O)[C@H](CC(C)C)NC(=O)[C@H](CC(C)C)NC(=O)OCc1ccccc1 [MG-132, reference compound] (Cbz-Leu-Leu-Leu-aldehyde)
- NF-κB activation (DNA binding) (NF-κB [1]): blocks NF-κB activation
- caspase-3 activity [2]: small increase in caspase-3 activity
- apoptosis (annexin staining) ([2]; polyphenols 100 μM): does not increase apoptosis rates to the same extent as trans-resveratrol
- NF-κB activation (DNA binding) (NF-κB [3]): blocks NF-κB activation
